Reference: PMC10338470, “Phase 1 study of GSK3368715, a type I PRMT inhibitor, in patients with advanced solid tumors” (British Journal of Cancer, 2023)

How the values were obtained:
[1] = tested on: ADMA-R225-hnRNP-A1 in PBMCs; assay: ADMA-R225-hnRNP-A1 in PBMCs (LC-MS), target engagement; type: in vivo, human
Protocol: (§1) Tumor cell and plasma target engagement PD biomarkers were assessed in the dose-escalation cohort on days 1, 8, 15, and 22. In the PK/PD cohort, urine for PK and metabolite profiling was collected postdose on day 1 and through 48 h postdose on day 2, and for 24 h postdose on day 15. Participants underwent an on-treatment tumor biopsy on day 15. Asymmetric arginine 225 (R225) methylation of heterogeneous nuclear ribonucleoprotein A1 (hnRNP-A1) was identified as a target engagement PD of type I PRMT inhibition; treatment with GSK3368715 results in the reduction of asymmetric dimethylarginine 225 (ADMA-R225) on hnRNP-A1 protein in cancer cell lines and peripheral blood mononuclear cells (PBMCs). Noto et al. describe in detail the identification of hnRNP-A1 as a pharmacodynamic biomarker of type I PRMT inhibition, and the development of novel methodologies to accurately and precisely quantitate changes in the levels of ADMA on hnRNP-A1 in both blood and tumor compartments. Levels of ADMA-R225-hnRNP-A1 were measured in fresh frozen and formalin-fixed paired biopsies by liquid chromatography-mass spectrometry (LC-MS) and immunohistochemistry (IHC).
To measure the ADMA-R225-hnRNP-A1 in the PBMCs, blood was collected using the standard technique for BD Vacutainer® Evacuated Blood Collection Tubes. The PBMC aspirate prepared was used for the ADMA analyses as previously described by the LC-MS method.

[2] = tested on: circulating free ADMA, cfMMA, cfSDMA; assay: Plasma circulating free ADMA, MMA and SDMA; type: in vivo, human; conditions: day 15
Protocol: as §1

[3] = tested on: ADMA-R225-hnRNP-A1 in tumor biopsies; assay: Tumor biopsy ADMA-R225-hnRNP-A1 by LC-MS (fresh frozen); type: in vivo, human; conditions: 100-mg dose level, day 15
Protocol: as §1

[4] = tested on: ADMA-R225-hnRNP-A1 in tumor biopsies; assay: Tumor biopsy ADMA-R225-hnRNP-A1 by IHC (formalin-fixed); type: in vivo, human; conditions: 100-mg dose level, day 15; in 4/8 patients
Protocol: as §1

[5] = Safety margins of starting dose from toxicity studies in dogs; type: in vivo; conditions: 50 mg starting dose
global ADMA levels = tested on: global ADMA levels; parameters: method as in PMID 31257072; conditions: preclinical cancer models ref [6]; cited from earlier work
lymphomas = tested on: lymphomas; parameters: method as in PMID 31257072; conditions: lymphomas ref [6]; cited from earlier work
[6] = tested on: acute myeloid leukemia (AML) cell lines; parameters: method as in PMID 31257072; conditions: acute myeloid leukemia (AML) cell lines ref [6]; cited from earlier work
[7] = in vivo; cited from earlier work

In the case of `CCOCC1(COCC)CCC(c2[nH]ncc2CN(C)CCNC)CC1` [GSK3368715], the “Reduction of ADMA-R225-hnRNP-A1 in PBMCs, mean (SE 5.81%)” value ([1]; 100 mg, day 15) is reported as 43.1%, the “Reduction of ADMA-R225-hnRNP-A1 in PBMCs, mean (SE 6.92%)” value ([1]; 200-mg dose group, day 15) is reported as 54.7% and the “Target engagement in the blood” value ([1]; in vivo) is reported as “observed”. The “Increase in cfMMA, mean (SE 11.9%)” value ([2]; 100 mg) was 24.8%, the “Increase in cfSDMA, mean (SE 8.65%)” value ([2]; 100 mg) was 30.2% and the “Reduction in circulating free ADMA, mean (SE 1.98%)” value ([2]; 100 mg) was 22.5%. For the same molecule, the “Increase in cfMMA, mean (SE 18.7%)” value ([2]; 200 mg) was 43.8%, the “Increase in cfSDMA, mean (SE 23.8%)” value ([2]; 200 mg) was 39.8% and the “Reduction in circulating free ADMA, mean (SE 7.7%)” value ([2]; 200-mg dose group) was 29.1%. For the same molecule, the “Target engagement in tumor biopsies” value [3] was “modest and variable”, the “Mean reduction of ADMA-hnRNP-A1 in tumor biopsies by LC-MS (SE 9.6)” value ([3]; in 4/6 patients) was 18.5% and the “Mean reduction of ADMA-hnRNP-A1 in tumor biopsies by IHC (SE 9.36)” value [4] was 2.08%. For the same molecule, the “Safety margin for the steady state AUC” value [5] was 16 fold, the “Safety margin for the steady state Cmax” value [5] was 33 fold and the “Time of maximal decreases in global ADMA levels” value (global ADMA levels) was 72 h. The “Cell lines with cytotoxic responses” value (lymphomas) was 56%, the “Cell lines with cytotoxic responses” value [6] was 50% and the “TEEs reported in preclinical models” value [7] was “no TEEs”.
